Test results as given in patent US8815592B2, “Methods and compositions related to dopaminergic neuronal cells” (Research Development Foundation, priority 2010, dated 2014).
Structures can show the parent of a compound that is named as a salt.

Assays:
[1] = molecular target: T1, dopaminergic transporter DAT (Mus musculus, UniProt Q61327); test: [3H] Win 35,428 binding on DAT receptor of ES-derived dopaminergic neurons, with and without GBR 12909; conditions: cells incubated with 10 μm GBR 12909 hydrochloride; 5 nM ligand; 6 well plates
T1 construct: After 16 days of differentiations, cells were incubated with [^3H]; Win35, 428 for 1 hour; endogenous in cells; host or cells: dopaminergic neurons differentiated from mouse embryonic stem cells (CGR8 line)
T1 sequence (Q61327 whole entry): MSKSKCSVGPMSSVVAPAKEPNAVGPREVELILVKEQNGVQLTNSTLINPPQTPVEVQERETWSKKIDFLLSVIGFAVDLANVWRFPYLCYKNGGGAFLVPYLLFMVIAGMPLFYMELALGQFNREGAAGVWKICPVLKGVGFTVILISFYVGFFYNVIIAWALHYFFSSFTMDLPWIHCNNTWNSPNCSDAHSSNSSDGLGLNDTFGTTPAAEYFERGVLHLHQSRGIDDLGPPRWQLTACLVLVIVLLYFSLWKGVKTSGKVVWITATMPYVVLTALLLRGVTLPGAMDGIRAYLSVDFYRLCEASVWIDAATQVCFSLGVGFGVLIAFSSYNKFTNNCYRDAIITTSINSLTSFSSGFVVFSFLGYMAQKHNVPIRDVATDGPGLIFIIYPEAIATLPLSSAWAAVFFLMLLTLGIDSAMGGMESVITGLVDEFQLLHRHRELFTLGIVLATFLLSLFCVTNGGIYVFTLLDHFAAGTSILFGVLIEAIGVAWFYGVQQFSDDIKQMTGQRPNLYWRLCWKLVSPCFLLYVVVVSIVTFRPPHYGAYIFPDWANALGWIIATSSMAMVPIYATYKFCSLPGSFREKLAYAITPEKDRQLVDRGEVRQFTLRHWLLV
Experimental: Cells were incubated on binding buffer containing 5 nM of the ligand at different time (30 to 60 minutes), with and without 10 μm of GBR 12909 hydrochloride. […] Radioactivity measured by liquid scintillation counter (WALLAC).
Win 35,428 binding to DAT receptor and DA-neurons in 96-well plate, cells were plated at the density of 60 cells/well.
After 16 days of differentiations, cells were incubated with [^3H] Win35, 428 for 1 hour and then washed by binding buffer for 1 minute, following by direct counting using liquid scintillation counter (WALLAC).
In detail, the binding assay was performed at 4° C. in phosphate-buffered saline (PBS) (Invitrogen/Gibco) containing 0.32 M sucrose with Ca^2+ and Mg^2+. Cells in each well were washed one time with 0.5 ml of phosphatebuffered. Then incubated at various time (30 to 60 min) with various amounts (5 to 10 nM) of [^3H] Win 35,428. The non specific binding was determined in the presence or not of 10 μM of GBR-12909 hydrochloride. The incubation was stopped by rinsing the cells three times with ice-cold buffer to eliminate non-linked [^3H] Win 35,428 and removal of cells. Cells were detached by a rake and transferred into a 96 well plate. Radioactivity was measured by a liquid scintillation counter (WALLAC).

[2] = tested on: Engineered neural tissues (ENTs); test: Neurotoxicology testing platform, electrical activity of engineered neural tissues; assay type: cell-based, mouse; conditions: ENTs (FIG. 13)
Experimental: Engineered neural tissues (ENTs) (a similar scheme could be applied to dopaminergic neurons provided according to certain aspects of the present invention) can be used for establishment of a neurotoxicology testing platform (FIG. 12). […] Mouse ENTs differentiated for 21 days were exposed to putative neurotoxic for 24 hours and spontaneous electrical activity was measured for the neurotoxicity testing (FIG. 14). Electrophysiological characterizations of ENTs include characterization of spontaneous activity such as spike frequency, spike amplitude, burst frequency (number of bursts per second), or number of spikes per burst, or characterization of evoked filed potentials such as amplitude of responses, paired-pulse inhibition, or input/output curve. The electrophysiological characterization of ENTs can be carried out by a multi-electrode array (FIG. 16).

Fc1ccc(C(OCCN2CCN(CCCc3ccccc3)CC2)c2ccc(F)cc2)cc1 [GBR 12909 hydrochloride]
non-specific binding as share of the total binding of [3H] Win 35,428 [1]: 50%

COc1cc2c(c(OC)c1OC)-c1ccc(OC)c(=O)cc1[C@@H](NC(C)=O)CC2 [colchicine]
epileptogenic activity [2]: demonstrated
